# According to paper PMC7880690, “Chemical genetics and proteome-wide site mapping reveal cysteine MARylation by PARP-7 on immune-relevant protein targets” (eLife, 2021):
# What was measured:
# PARP5bcat = target: T1, PARP5bcat (Homo sapiens, UniProt Q9H2K2); assay: ADP-ribosylation plate assay, PARP5bcat; type: biochemical; details: in vitro plate assay; ± SEM, at least two biological replicates
# T1 construct: PARP5bcat
# PARP1FL = PARP1FL (Homo sapiens, UniProt P09874); assay: ADP-ribosylation plate assay, PARP1FL
# Sequence of PARP1FL (P09874 whole entry): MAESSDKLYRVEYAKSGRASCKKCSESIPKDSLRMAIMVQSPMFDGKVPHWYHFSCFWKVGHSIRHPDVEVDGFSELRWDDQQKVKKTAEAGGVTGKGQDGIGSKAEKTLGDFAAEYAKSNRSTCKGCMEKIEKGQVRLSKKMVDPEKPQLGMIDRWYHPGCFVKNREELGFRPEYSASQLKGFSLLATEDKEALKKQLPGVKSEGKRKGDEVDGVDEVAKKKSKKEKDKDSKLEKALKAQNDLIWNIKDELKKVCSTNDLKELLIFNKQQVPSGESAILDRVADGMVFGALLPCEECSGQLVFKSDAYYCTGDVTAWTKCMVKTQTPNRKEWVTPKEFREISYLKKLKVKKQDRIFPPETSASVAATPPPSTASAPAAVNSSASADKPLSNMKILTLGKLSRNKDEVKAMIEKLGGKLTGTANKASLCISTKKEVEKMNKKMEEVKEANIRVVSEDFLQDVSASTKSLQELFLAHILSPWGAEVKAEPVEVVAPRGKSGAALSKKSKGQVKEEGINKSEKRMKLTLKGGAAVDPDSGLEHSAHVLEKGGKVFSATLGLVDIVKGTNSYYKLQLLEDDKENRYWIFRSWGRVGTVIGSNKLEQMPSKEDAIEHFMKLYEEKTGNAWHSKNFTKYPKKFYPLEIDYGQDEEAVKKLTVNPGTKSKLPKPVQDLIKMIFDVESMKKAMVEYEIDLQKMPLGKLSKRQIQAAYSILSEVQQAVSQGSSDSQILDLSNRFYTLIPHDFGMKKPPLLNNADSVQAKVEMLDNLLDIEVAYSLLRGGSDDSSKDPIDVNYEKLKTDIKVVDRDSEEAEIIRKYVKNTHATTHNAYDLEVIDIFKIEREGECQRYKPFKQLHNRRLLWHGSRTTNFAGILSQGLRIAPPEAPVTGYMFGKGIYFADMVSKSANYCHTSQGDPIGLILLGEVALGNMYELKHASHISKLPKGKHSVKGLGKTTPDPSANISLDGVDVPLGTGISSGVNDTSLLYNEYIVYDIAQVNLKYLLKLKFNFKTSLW
# PARP2FL = PARP2FL (Homo sapiens, UniProt Q9UGN5); assay: ADP-ribosylation plate assay, PARP2FL
# Sequence of PARP2FL (Q9UGN5 whole entry): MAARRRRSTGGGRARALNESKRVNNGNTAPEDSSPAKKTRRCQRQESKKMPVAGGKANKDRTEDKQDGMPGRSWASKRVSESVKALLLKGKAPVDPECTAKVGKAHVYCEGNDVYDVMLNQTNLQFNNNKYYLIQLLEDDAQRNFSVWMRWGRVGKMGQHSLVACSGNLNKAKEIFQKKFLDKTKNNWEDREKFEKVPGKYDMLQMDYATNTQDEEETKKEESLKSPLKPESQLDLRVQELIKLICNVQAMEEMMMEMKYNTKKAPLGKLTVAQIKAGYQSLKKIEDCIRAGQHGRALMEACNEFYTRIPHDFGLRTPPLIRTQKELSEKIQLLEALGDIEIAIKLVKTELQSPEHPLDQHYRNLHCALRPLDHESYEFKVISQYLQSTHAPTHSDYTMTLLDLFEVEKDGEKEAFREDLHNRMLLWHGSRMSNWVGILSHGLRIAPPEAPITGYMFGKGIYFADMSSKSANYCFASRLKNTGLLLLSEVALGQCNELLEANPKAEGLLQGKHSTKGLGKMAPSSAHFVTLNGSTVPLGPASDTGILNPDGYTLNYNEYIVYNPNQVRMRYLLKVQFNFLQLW
# PARP8FL = target: T2, PARP8FL (Homo sapiens, UniProt Q8N3A8); assay: ADP-ribosylation plate assay, PARP8FL
# T2 sequence (Q8N3A8 1-854): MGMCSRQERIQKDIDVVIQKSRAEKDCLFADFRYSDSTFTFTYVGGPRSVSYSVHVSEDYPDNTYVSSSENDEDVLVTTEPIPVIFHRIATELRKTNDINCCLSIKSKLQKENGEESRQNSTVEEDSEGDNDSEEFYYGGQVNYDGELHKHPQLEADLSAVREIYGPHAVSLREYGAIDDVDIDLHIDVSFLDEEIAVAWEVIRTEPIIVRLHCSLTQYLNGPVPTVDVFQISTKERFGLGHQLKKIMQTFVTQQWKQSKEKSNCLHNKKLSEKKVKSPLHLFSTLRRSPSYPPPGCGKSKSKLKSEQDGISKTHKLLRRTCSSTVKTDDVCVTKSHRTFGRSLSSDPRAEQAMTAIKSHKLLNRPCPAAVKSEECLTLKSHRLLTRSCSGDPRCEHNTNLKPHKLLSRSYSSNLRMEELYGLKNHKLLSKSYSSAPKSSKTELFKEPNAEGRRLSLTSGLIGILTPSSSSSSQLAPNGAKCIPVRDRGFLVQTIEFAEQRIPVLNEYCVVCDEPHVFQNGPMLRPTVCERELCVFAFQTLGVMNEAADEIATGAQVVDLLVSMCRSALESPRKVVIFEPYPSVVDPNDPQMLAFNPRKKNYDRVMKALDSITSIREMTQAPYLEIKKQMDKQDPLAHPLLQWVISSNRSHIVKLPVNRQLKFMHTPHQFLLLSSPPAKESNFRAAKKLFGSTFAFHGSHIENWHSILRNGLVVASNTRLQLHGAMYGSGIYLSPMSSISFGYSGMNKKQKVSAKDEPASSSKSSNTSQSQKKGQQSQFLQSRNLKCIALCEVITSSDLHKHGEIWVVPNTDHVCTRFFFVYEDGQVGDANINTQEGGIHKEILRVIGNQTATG
# PARP16FL = target: T3, PARP16FL (Homo sapiens, UniProt Q8N5Y8); assay: ADP-ribosylation plate assay, PARP16FL
# T3 sequence (Q8N5Y8 1-322): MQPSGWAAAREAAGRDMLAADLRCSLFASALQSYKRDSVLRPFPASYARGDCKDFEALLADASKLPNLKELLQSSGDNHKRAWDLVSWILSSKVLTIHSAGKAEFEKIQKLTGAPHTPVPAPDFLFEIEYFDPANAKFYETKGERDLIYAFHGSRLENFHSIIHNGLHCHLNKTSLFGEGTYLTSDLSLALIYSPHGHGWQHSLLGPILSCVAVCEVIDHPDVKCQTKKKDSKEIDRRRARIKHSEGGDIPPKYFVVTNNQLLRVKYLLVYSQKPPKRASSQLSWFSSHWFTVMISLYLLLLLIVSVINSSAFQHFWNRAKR
# PARP15cat = target: T4, PARP15cat (Homo sapiens, UniProt Q460N3); assay: ADP-ribosylation plate assay, PARP15cat
# T4 sequence (Q460N3 482-678 limits assumed): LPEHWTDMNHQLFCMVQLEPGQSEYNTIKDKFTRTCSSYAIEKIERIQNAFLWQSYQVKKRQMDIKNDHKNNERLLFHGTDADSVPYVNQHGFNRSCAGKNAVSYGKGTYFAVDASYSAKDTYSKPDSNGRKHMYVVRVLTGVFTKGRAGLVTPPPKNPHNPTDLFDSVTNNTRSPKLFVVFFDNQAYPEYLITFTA
# PARP14wwe-cat. = target: T5, PARP14wwe-cat. (Homo sapiens, UniProt Q460N5); assay: ADP-ribosylation plate assay, PARP14wwe-cat.
# T5 sequence (Q460N5 1523-1801 limits assumed): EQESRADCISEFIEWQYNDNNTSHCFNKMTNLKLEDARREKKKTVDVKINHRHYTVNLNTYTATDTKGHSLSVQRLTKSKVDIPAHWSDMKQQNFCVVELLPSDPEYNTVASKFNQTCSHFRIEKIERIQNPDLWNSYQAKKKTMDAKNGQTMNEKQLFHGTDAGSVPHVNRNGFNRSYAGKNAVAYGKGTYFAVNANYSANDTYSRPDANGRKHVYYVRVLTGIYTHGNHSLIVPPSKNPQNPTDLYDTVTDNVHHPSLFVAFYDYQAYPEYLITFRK
# PARP-7 = target: T6, PARP-7 (Homo sapiens, UniProt Q7Z3E1); assay: Endogenous PARP-7 protein levels in A549 cells, western blot; details: A549 cells treated with Phthal01
# T6 sequence (Q7Z3E1 1-657): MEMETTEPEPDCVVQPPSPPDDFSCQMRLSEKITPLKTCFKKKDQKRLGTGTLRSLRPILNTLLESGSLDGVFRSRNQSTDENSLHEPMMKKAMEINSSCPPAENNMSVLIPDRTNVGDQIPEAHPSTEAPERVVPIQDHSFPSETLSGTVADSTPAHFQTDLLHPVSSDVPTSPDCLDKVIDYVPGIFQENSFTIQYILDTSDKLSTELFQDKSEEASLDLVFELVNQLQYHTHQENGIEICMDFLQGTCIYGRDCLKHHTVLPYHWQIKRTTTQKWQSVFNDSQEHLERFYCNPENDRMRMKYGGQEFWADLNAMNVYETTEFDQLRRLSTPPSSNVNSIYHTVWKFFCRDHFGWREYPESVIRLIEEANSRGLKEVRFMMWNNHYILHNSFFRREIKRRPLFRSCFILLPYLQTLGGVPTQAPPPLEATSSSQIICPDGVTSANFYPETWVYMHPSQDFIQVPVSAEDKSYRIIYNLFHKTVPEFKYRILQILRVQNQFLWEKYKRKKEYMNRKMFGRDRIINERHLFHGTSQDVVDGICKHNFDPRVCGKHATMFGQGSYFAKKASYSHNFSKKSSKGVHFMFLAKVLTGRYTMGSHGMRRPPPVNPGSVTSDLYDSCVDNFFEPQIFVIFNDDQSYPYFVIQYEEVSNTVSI
# T1 sequence (Q9H2K2 959-1164): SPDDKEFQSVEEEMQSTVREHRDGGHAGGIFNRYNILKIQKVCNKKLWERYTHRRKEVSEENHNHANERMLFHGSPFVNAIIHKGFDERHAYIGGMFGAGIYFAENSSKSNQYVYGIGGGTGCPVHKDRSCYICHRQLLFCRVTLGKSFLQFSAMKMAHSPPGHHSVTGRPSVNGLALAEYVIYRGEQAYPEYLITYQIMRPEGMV
structure (smiles),measurement,setting,value
"N#Cc1ccc(N2CCN(C(=O)c3cc(Cc4n[nH]c(=O)c5ccccc45)ccc3F)CC2)nc1 [Phthal01, 6-(4-(2-fluoro-5-((4-oxo-3,4-dihydrophthalazin-1-yl)methyl)benzoyl)piperazin-1-yl)nicotinonitrile]",IC50,PARP5bcat,2520 ± 200 nM
same,IC50,PARP1FL,21 nM
same,IC50,PARP2FL,28 nM
same,IC50,PARP8FL,4700 ± 1000 nM
same,IC50,PARP16FL,4300 ± 1000 nM
same,IC50,PARP15cat,2000 ± 300 nM
same,IC50,PARP14wwe-cat.,> 10000 nM
same,endogenous PARP-7 protein levels,PARP-7,increase substantially
